Source: US10214507B2, “Carbazole-containing amides, carbamates, and ureas as cryptochrome modulators” (Reset Therapeutics, Inc., priority 2014, dated 2019)

Key:
[1] = system: stable U20S reporter cells harboring Per2-dLuc; experiment: Per2 assay for evaluating the potency of test compounds (circadian luciferase reporter); assay type: cell-based; details: amplitude of Per2-dLuc luminescence vs log concentration
Procedure, shortened: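 U2OS Per2-dLuc cells grown 48 h at 37 °C, then synchronized with 5 μM forskolin plus 1 mM luciferin and dosed with 3-fold compound dilutions.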

[2] = system: core clock gene mRNAs in livers of ICR mice; experiment: Four day study, liver clock gene mRNA by RT-qPCR, ICR mice; assay type: in vivo, mouse; details: 50 mg/kg PO BID 4 days; for liver Per2 expression: ICR mice, ZT6
Protocol: Male ICR mice (weighing 30-35 g), obtained from Charles River Laboratories (Hollister, CA), were used for the experiment following at least 3 days of acclimation. Mice were dosed with vehicle (WFI or 10% Kolliphor) or compound (50 mg/kg, dose volume 5 mL/kg, PO) for 4 days BID (twice a day), beginning in the afternoon of the first day. The last dose of compound or vehicle was administered on the morning of harvest. On the day of harvest (6 hours following the final dose), mice were euthanized by CO2 asphyxiation and 50 mg of liver tissue was excised and placed in a tube containing 500 μl of RNA later.
E.Z.N.A.® HP Total RNA Isolation Kits (R6812-01 and the protocol described in the Manual, Revised 2010) were utilized to prepare and isolate RNA from the liver samples. To prepare the RNA samples, 10-30 mg of sample was removed from RNA-Later and placed in a 1.5 ml microfuge tube. GTC lysis buffer (700 μl) was added to the tissue, which was homogenized with a rotor-stator homogenizer (e.g. Tissue-Tearor, Model #985370 BioSpec Products with 4.5 mm probe, Cat. #985370-04), and then centrifuged at full speed (>13,000×g) for 5 minutes. The cleared supernatant was transferred by pipetting to a DNA Clearance Column Pre-inserted in a 2 mL Collection Tube. The assembled column was centrifuged at 13,000×g for 1 minute, and the flow-through was saved. An equal volume (700 μl) of 70% ethanol was added to the lysate and mixed. The sample was then applied to a HiBind RNA spin column placed into a 2 ml collection tube, which was centrifuged at 10,000×g for 60 seconds at room temperature. RNA Wash Buffer I (250 μl) was added by pipetting directly onto a new HiBind RNA column inserted in a 2 ml collection tube. The assembled column was centrifuged at 10,000×g for 60 seconds. The RNA column was placed into a new 2 ml collection tube. DNase I stock solution is pipetted (75 μl) directly onto the surface of the HiBind RNA resin in each column (Using DNAse Digestion with RNase Free DNase Set (E1091): for each HiBind RNA column, the DNase I stock solution was prepared as followed: E.Z.N.A.® DNase I Digestion Buffer 73.5μl, RNase Free DNase I (20 Kunitz/μl) 1.5 μl=Total Volume 75 μl.). The column with bound RNA was incubated at room temperature (25-30° C.) for 15 minutes. RNA Wash Buffer I (500 μl) was added to the column and placed on a bench top for 2 minutes. After centrifuging at 10,000×g for 60 seconds, discarding the flow-through, 500 μl of RNA Wash Buffer II was added and centrifuged at 10,000×g for 60 seconds. Another 500 μl of RNA Wash Buffer II was added and the column assembly was centrifuged at 10,000×g for 60 seconds. The column was centrifuged for 2 minutes at maximum speed to completely dry the HiBind matrix. The column was placed in a clean 1.5 ml microcentrifuge tube and 40-70 μl of molecular biology grade water is added. After sitting for 1 minute, the column was centrifuged for 2 minutes at maximum speed to elute the RNA. The isolated RNA was collected into the collection tube.
RediPlate 96 RiboGreen RNA Quantification Kit (Invitrogen) RediPlate standard curve was prepared by transferring 20 μl reconstituted RNA standard to a RediPlate well reconstituted in 180 μl RediPlate TE buffer. For liver RNAs prepared from 30-100 mg of tissue using a kit similar to the Omega Bio-Tek HP Total RNA Kit and eluted in RNAse-free water in a volume of 50 μl (microliters), 5 μl of the total RNA is diluted in 195 μl of RediPlate TE buffer (1:40 dilution of RNA), mix. After transferring 5 μl to RediPlate well reconstituted in 195 μl TE buffer and incubating 10 min. at RT, Fluorescence Intensity of wells with standards and samples were read in a Tecan M200 with Excitation set at 480 nm and Emission set at 520 nm with the gain set to −70%. Alternatively, one can use the FlexStation 3 with Ex 488 nm and Em 525 nm and a Cutoff of 515 nm.

[3] = system: cortisone-induced insulin resistance in Sprague Dawley rats; experiment: Cortisone induced insulin resistance in rats; assay type: in vivo, rat; details: cortisone 30 mg/kg sc + 30 mg/kg po
Protocol: Animals were dosed with cortisone (30 mg/kg sc qd) in combination with test compounds for 6 days and then terminated 27 hours after the final dose of cortisone. A reference standard (Mifepristone) was also included. Cortisone 21-acetate (Sigma C-3130) was supplied by RenaSci and administered using a dose volume of 5 ml/kg via the subcutaneous route as a fine suspension in 1% methylcellulose. […] Mifepristone (Sigma M8046) was provided by RenaSci.
Glucose and insulin determinations were performed on plasma samples obtained from a tail vein bleed taken after a 12 h fast, approximately 27 h after the last cortisone dose. Animals were then terminated and a terminal (cardiac) blood sample taken from which plasma was prepared.
Thirty four male Sprague Dawley rats (weight range 200-250 g) were ordered from Charles River, Margate, Kent, UK. […] Subsequently, animals underwent a 3 day baseline period during which they were dosed once daily with vehicle at t=0 h (07:00). […] Body weight was recorded immediately before dosing began at 07:00 (t=0 h).
On Day 6 of dosing rats were fasted for 12 h beginning at 22:30 (timed to coincide with the Day 7 termination). […] At 10:30 on Day 7, 27 h after the final dose of cortisone, a blood sample (300 μl) was taken from the lateral tail vein into tubes containing EDTA (Sarstedt 16.444). The blood was centrifuged and resultant plasma aliquot stored at −75° C. The animals were euthanized by CO2 asphyxiation followed by cervical dislocation. Terminal blood (approximately 10 ml) was collected by cardiac puncture into tubes containing EDTA (Sarstedt 5 ml 32.332) and then centrifuged and plasma stored at −75° C. The tail vein plasma was analyzed for glucose (n=2) using a commercial clinical reagent (Thermoelectron Infinity glucose reagent (TR15421) and for insulin (n=1) using the Mercodia ultrasensitive rat insulin rat ELISA (10-1251-10).
Plasma glucose and insulin were analyzed by robust regression or general linear model with treatment as a factor and bleeding order and baseline body weight as covariates. A log transformation was used if appropriate. Appropriate multiple comparison tests (two-tailed) were used to determine significant differences from the vehicle group and from the Cortisone group. P<0.05 was considered to be statistically significant.

| SMILES | EC50 [1] [nM] | also measured |
| --- | --- | --- |
| O=C1C2CCC(C2)N1CC(O)Cn1c2ccc(F)cc2c2cc(F)ccc21 (stereo not drawn) [Compound 48, 2-(3-(3,6-difluoro-9H-carbazol-9-yl)-2-hydroxypropyl)-2-azabicyclo[2.2.1]heptan-3-one] | 120 | Cry2 transcripts ([2]; ICR mice liver): decrease; increase in Bmal1 mRNA at ZT6 ([2]; ICR mice liver): 8 fold; liver Per2 expression [2]: suppression |
| COC1CCCN(CC(O)Cn2c3ccc(F)cc3c3cc(F)ccc32)C1=O (stereo not drawn) [Compound 57, 1-(3-(3,6-difluoro-9H-carbazol-9-yl)-2-hydroxypropyl)-3-methoxypiperidin-2-one] | 329 | increase in Bmal1 mRNA at ZT6 ([2]; ICR mice liver): ≥ 2 fold; liver Per2 expression [2]: suppression |
| O=C1[C@H](F)CCN1C[C@H](O)Cn1c2ccccc2c2ccccc21 [Compound 121, (R)-1-((R)-3-(9H-carbazol-9-yl)-2-hydroxypropyl)-3-fluoropyrrolidin-2-one] | 210 |  |
| O=C1[C@@H](F)CCN1C[C@H](O)Cn1c2ccccc2c2ccccc21 [Compound 122, (S)-1-((R)-3-(9H-carbazol-9-yl)-2-hydroxypropyl)-3-fluoropyrrolidin-2-one] | 263 |  |
| C[C@@](O)(CN1CC[C@@H](F)C1=O)Cn1c2ccccc2c2ccccc21 [Compound 123, (R)-1-((S)-3-(9H-carbazol-9-yl)-2-hydroxy-2-methylpropyl)-3-fluoropyrrolidin-2-one] | 311 |  |
| C[C@@](O)(CN1CC[C@H](F)C1=O)Cn1c2ccccc2c2ccccc21 [Compound 124, (S)-1-((S)-3-(9H-carbazol-9-yl)-2-hydroxy-2-methylpropyl)-3-fluoropyrrolidin-2-one] | 309 |  |
| C[C@@](O)(CN1CC[C@H](F)C1=O)Cn1c2ccc(F)cc2c2cc(F)ccc21 [Compound 125, (S)-1-((S)-3-(3,6-difluoro-9H-carbazol-9-yl)-2-hydroxy-2-methylpropyl)-3-fluoropyrrolidin-2-one] | 451 |  |
| C[C@@](O)(CN1CC[C@@H](F)C1=O)Cn1c2ccc(F)cc2c2cc(F)ccc21 [Compound 126, (R)-1-((S)-3-(3,6-difluoro-9H-carbazol-9-yl)-2-hydroxy-2-methylpropyl)-3-fluoropyrrolidin-2-one] | 958 |  |
| C[C@](O)(CN1CC[C@@H](F)C1=O)Cn1c2ccccc2c2ccccc21 [Compound 127, (R)-1-((R)-3-(9H-carbazol-9-yl)-2-hydroxy-2-methylpropyl)-3-fluoropyrrolidin-2-one] | 535 |  |
| C[C@](O)(CN1CC[C@H](F)C1=O)Cn1c2ccccc2c2ccccc21 [Compound 128, (S)-1-((R)-3-(9H-carbazol-9-yl)-2-hydroxy-2-methylpropyl)-3-fluoropyrrolidin-2-one] | 172 |  |
| C[C@H]1CCC(=O)N(C[C@H](O)Cn2c3ccccc3c3ccccc32)C1 [Compound 129, (S)-1-((R)-3-(9H-carbazol-9-yl)-2-hydroxypropyl)-5-methylpiperidin-2-one] | 748 |  |
| C[C@H]1CCC(=O)N(C[C@H](O)Cn2c3ccc(F)cc3c3cc(F)ccc32)C1 [Compound 130, (S)-1-((R)-3-(3,6-difluoro-9H-carbazol-9-yl)-2-hydroxypropyl)-5-methylpiperidin-2-one] | 895 |  |
| C[C@@H]1CCC(=O)N(C[C@H](O)Cn2c3ccccc3c3ccccc32)C1 [Compound 131, (R)-1-((R)-3-(9H-carbazol-9-yl)-2-hydroxypropyl)-5-methylpiperidin-2-one] | 280 |  |
| C[C@H]1CCC(=O)N(C[C@@H](O)Cn2c3ccccc3c3ccccc32)C1 [Compound 132, (S)-1-((S)-3-(9H-carbazol-9-yl)-2-hydroxypropyl)-5-methylpiperidin-2-one] | 1130 |  |
| C[C@@H]1CCC(=O)N(C[C@@H](O)Cn2c3ccccc3c3ccccc32)C1 [Compound 133, (R)-1-((S)-3-(9H-carbazol-9-yl)-2-hydroxypropyl)-5-methylpiperidin-2-one] | 838 |  |
| C[C@@H]1CCC(=O)N(C[C@H](O)Cn2c3ccc(F)cc3c3cc(F)ccc32)C1 [Compound 134, (R)-1-((R)-3-(3,6-difluoro-9H-carbazol-9-yl)-2-hydroxypropyl)-5-methylpiperidin-2-one] | 397 |  |
| C[C@H]1CN(C[C@H](O)Cn2c3ccc(F)cc3c3cc(F)ccc32)C(=O)N1 [Compound 135, (S)-1-((R)-3-(3,6-difluoro-9H-carbazol-9-yl)-2-hydroxypropyl)-4-methylimidazolidin-2-one] | 1130 |  |
| C[C@@H]1CN(C[C@H](O)Cn2c3ccc(F)cc3c3cc(F)ccc32)C(=O)N1 [Compound 136, (R)-1-((R)-3-(3,6-difluoro-9H-carbazol-9-yl)-2-hydroxypropyl)-4-methylimidazolidin-2-one] | 826 |  |
| C[C@H]1CN(C[C@H](O)Cn2c3ccccc3c3ccccc32)C(=O)N1 [Compound 137, (S)-1-((R)-3-(9H-carbaxol-9-yl)-2-hydroxypropyl)-4-methylimidazolidin-2-one] | 766 |  |
| CC#C[C@]1(O)CC[C@H]2[C@@H]3CCC4=CC(=O)CCC4=C3[C@@H](c3ccc(N(C)C)cc3)C[C@@]21C [Mifepristone, mifepristone, reference compound] |  | HOMA-IR ([3]; insulin resistant rats): 29.99+/−2.54 units; fasted plasma insulin ([3]; rats): 3.62 ± 0.29 ng/mL; fasted plasma glucose ([3]; rats, unit printed as ng/mL): 7.43 ± 0.27 ng/mL |
